Data published in patent US5747500A, “Antiviral 2, 4-pyrimidinedione derivatives” (priority 1993, dated 1998).
Converted amounts (≈) assume the structure as drawn.

Tests used:
[1] = system: HIV; experiment: inhibition of HIV-induced cytopathic effect in MT-4 cells (MTT method); format: cell-based; details: for EC50: Human immunodeficiency virus 1, MT4, HIV-infected MT-4 cells, 1000 CCID50, 4 or 5 day incubation at 37° C., MTT method, read-out: ED50: Effective concentration for the inhibition of the proliferation of HIV by 50%; for S.I.: Selectivity index (CD50/ED50): ratio CD50/ED50, MT-4 cells
Procedure: The anti-HIV assays were based on the inhibition of the virus-induced cytopathic effect in MT-4 cells as described in J. Virol. Methods, 16, 171 (1987). Briefly, MT-4 cells were suspended in culture medium at 2.5×10^5 cells/ml and infected with 1000 CCID50 (50% cell culture infective dose) of HIV. Immediately, after virus infection, 100 μl of the cell suspension was brought into each well of a flat-bottomedmicrotiter tray containing various concentrations of the test compounds. After a 4 or 5 day incubation at 37° C., the number of viable cells was determined by the 3-(4,5-dimethylthiazol-2-yl)-2,5-diphenyltetrazoliumbromide (MTT) method, as disclosed in J. Virol. Methods, 20, 309 (1988).
ED50 : Effective concentration for the inhibition of the
proliferation of HIV by 50%

[2] = cytotoxicity: viability of mock-infected MT-4 host cells (MTT method); format: cell-based; details: human, mt-4 cells, read-out: CD50: Cytotoxic concentration that causes death of cells by 50%
Procedure: The cytotoxicity of the compounds of the present invention was assessed in parallel with their antiviral activity. It was based on the viability of mock-infected host cells as determined by the MTT methods (se J. Virol. Methods, 20, 309 (1988)).
CD50 : Cytotoxic concentration that causes death of cells by 50%

Row | Structure (SMILES) | EC50 [1] [µg/mL] | S.I.: Selectivity index (CD50/ED50) [1] | CC50 [2] [µg/mL]
1 | C#CCn1c(Sc2ccccc2)c(CC)c(=O)[nH]c1=O [Example 1, 1-propargyl-5-ethyl-6-phenylthio-2,4-pyrimidinedione] | < 0.32 | > 46 | 14.8 (≈ 51.9 µM)
2 | CC/C=C/Cn1c(Sc2cc(C)cc(C)c2)c(CC)c(=O)[nH]c1=O [Example 2, 1-(trans-2-pentenyl)-5-ethyl-6-(3,5-dimethylphenylthio)-2,4-pyrimidinedione] | < 0.32 | > 29 | 8.73 (≈ 25.3 µM)
3 | Cc1cc(C)cc(Sc2c(C(C)C)c(=O)[nH]c(=O)n2CC#Cc2ccccc2)c1 [Example 3, 1-(3-phenyl-2-propynyl)-5-isopropyl-6-(3,5-dimethylphenylthio)-2,4-pyrimidinedione] | < 0.009 | > 882 | 7.94 (≈ 19.6 µM)
4 | C=CCn1c(Cc2ccccc2)c(CC)c(=O)[nH]c1=O [Example 4, 1-allyl-5-ethyl-6-benzyl-2,4-pyrimidinedione] | < 0.32 | > 164 | 52.5 (≈ 194 µM)
5 | C/C=C/Cn1c(Cc2cc(C)cc(C)c2)c(CC)c(=O)[nH]c1=O [Example 5, 1-(trans-2-butenyl)-5-ethyl-6-(3,5-dimethylbenzyl)-2,4-pyrimidinedione] | < 0.032 | > 1,518 | 48.6 (≈ 156 µM)
6 | Cc1cc(C)cc(Cc2c(C(C)C)c(=O)[nH]c(=O)n2C/C=C/c2ccccc2)c1 [Example 6, 1-(trans-cinnamyl)-5-isopropyl-6-(3,5-dimethylbenzyl)-2,4-pyrimidinedione] | < 0.009 | > 892 | 8.03 (≈ 20.7 µM)
7 | CCc1c(C(=O)c2cc(C)cc(C)c2)n(CC=C(C)C)c(=O)[nH]c1=O [Example 7, 1-(3-methyl-2-butenyl)-5-ethyl-6-(3,5-dimethylbenzoyl)-2,4-pyrimidinedione] | < 0.33 | > 84 | 27.8 (≈ 81.8 µM)
8 | CCc1c(C(=O)c2cc(C)cc(C)c2)n(CC=CC(=O)OC)c(=O)[nH]c1=O [Example 8, 1-(methoxycarbonylallyl)-5-ethyl-6-(3,5-dimethylbenzoyl)-2,4-pyrimidinedione] | < 0.19 | > 143 | 27.2 (≈ 73.5 µM)
9 | Cc1cc(C)cc(C(=O)c2c(C(C)C)c(=O)[nH]c(=O)n2C/C=C/CCl)c1 [Example 9, 1-(4-chloro-trans-2-butenyl)-5-isopropyl-6-(3,5-dimethylbenzoyl)-2,4-pyrimidinedione] | < 0.009 | > 708 | 6.38 (≈ 17 µM)
10 | C/C=C/Cn1c(Oc2cc(C)cc(C)c2)c(CC)c(=O)[nH]c1=O [Example 10, 1-(trans-2-butenyl)-5-ethyl-6-(3,5-dimethylphenoxy)-2,4-pyrimidinedione] | < 0.01 | > 1,939 | 19.4 (≈ 61.7 µM)
11 | CC#CCn1c(Oc2cc(C)cc(C)c2)c(C(C)C)c(=O)[nH]c1=O [Example 11, 1-(2-butynyl)-5-isopropyl-6-(3,5-dimethylphenoxy)-2,4-pyrimidinedione] | < 0.32 | > 124 | 39.9 (≈ 122 µM)
12 | C=CCn1c(Sc2ccccc2)c(CC)c(=O)[nH]c1=O [Example 12, 1-allyl-5-ethyl-6-phenylthio-2,4-pyrimidinedione] | < 0.32 | > 54 | 17.5 (≈ 60.6 µM)
13 | C/C=C/Cn1c(Sc2ccccc2)c(CC)c(=O)[nH]c1=O [Example 13] | < 0.32 | > 50 | 16.2 (≈ 53.5 µM)
14 | CCc1c(Sc2ccccc2)n(C/C=C/c2ccccc2)c(=O)[nH]c1=O [Example 14] | < 0.032 | > 180 | 5.77 (≈ 15.8 µM)
15 | CCc1c(Sc2ccccc2)n(CC=C(C)C)c(=O)[nH]c1=O [Example 15, 1-(3-methyl-2-butenyl)-5-ethyl-6-phenylthio-2,4-pyrimidinedione] | 0.36 (≈ 1.14 µM) | 31 | 11.3 (≈ 35.6 µM)
16 | CCOC/C=C\Cn1c(Sc2ccccc2)c(CC)c(=O)[nH]c1=O [Example 16] | 2.78 (≈ 8.02 µM) | 6.85 | 19 (≈ 54.9 µM)
17 | CCc1c(Sc2ccccc2)n(C/C=C\COCc2ccccc2)c(=O)[nH]c1=O [Example 17] | 3.68 (≈ 9.01 µM) | 1.57 | 5.79 (≈ 14.2 µM)
18 | C=CCn1c(Sc2cc(C)cc(C)c2)c(CC)c(=O)[nH]c1=O [Example 18, 1-allyl-5-ethyl-6-(3,5-dimethylphenylthio)-2,4-pyrimidinedione] | < 0.032 | > 121 | 3.9 (≈ 12.3 µM)
19 | C/C=C/Cn1c(Sc2cc(C)cc(C)c2)c(CC)c(=O)[nH]c1=O [Example 19] |  | > 971 | 8.74 (≈ 26.4 µM)
